Usually pEC50 stands for −log10 of the EC50, conventionally taken in molar units. For orientation: pKd means the negative decadic logarithm of the Kd, by convention in mol/L.

Here are results for twelve compounds from ChEMBL document CHEMBL4602637, “Synthesis and biological evaluation of novel pyrazolo[1,5-a]pyrimidines: Discovery of a selective inhibitor of JAK1 JH2 pseudokinase and VPS34” (Bioorg Med Chem Lett, 2020).

pEC50, pKd: −log10 of the molar value. Active and inactive are the calls of the source. The rule behind the calls is not given here.

The test system of test [1] is A2780. As to the kind of experiment: Antimitotic activity against human A2780 cells at 10 uM by ATP lite luminescence assay. The test is classed as functional, cell-based.
Test [2] relates to A2780. As to the kind of experiment: Antimitotic activity against human A2780 cells by ATP lite luminescence assay. Type of test: functional, cell-based.
For test [3], the system named is MCF7. As to the kind of experiment: Antimitotic activity against human MCF7 cells by ATP lite luminescence assay. Type of test: functional, cell-based.
In test [4] the target is T1, Tyrosine-protein kinase JAK1 (Homo sapiens, UniProt P23458). As to the kind of experiment: Inhibition of wild-type human partial length JAK1 JH2 pseudokinase domain (R537 to D855 residues) expressed in mammalian expression system assessed as enzyme residual activity at 10 uM by Kinomescan method relative to control.
T1 sequence (P23458 whole entry, the tested form may be a part): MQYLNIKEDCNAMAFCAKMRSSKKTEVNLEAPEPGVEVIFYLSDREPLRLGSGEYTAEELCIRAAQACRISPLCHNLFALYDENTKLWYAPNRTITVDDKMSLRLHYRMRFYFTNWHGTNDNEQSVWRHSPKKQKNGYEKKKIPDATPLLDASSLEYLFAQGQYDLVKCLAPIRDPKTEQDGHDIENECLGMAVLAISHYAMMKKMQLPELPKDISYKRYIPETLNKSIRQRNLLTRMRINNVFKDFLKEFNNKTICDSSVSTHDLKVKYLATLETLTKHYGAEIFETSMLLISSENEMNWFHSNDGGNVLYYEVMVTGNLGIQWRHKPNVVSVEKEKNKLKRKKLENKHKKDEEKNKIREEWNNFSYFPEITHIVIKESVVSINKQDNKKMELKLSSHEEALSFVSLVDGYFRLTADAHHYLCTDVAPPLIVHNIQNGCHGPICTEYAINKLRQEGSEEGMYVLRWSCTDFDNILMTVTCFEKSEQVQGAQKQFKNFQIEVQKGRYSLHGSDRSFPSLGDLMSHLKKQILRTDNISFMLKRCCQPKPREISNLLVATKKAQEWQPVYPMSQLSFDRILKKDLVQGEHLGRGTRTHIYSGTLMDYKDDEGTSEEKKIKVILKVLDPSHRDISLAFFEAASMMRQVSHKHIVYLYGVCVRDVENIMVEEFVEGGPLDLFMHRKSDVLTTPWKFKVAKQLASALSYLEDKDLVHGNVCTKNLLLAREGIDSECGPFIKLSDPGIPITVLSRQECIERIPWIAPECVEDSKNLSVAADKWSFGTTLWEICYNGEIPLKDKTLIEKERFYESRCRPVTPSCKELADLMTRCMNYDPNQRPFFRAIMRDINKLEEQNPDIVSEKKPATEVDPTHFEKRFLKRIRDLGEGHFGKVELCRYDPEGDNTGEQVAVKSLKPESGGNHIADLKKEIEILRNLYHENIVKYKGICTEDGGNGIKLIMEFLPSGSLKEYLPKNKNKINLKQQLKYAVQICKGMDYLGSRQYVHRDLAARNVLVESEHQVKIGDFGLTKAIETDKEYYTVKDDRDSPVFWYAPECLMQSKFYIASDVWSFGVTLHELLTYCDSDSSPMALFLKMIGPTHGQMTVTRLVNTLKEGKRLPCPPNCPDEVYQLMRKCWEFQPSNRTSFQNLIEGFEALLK
In test [5] the target is T2, Phosphatidylinositol 3-kinase catalytic subunit type 3 (Homo sapiens, UniProt Q8NEB9). Put plainly: Inhibition of wild-type human partial length PIK3C3 (S282 to H879 residues) expressed in mammalian expression system assessed as enzyme residual activity at 10 uM by Kinomescan method relative to control.
T2 sequence (Q8NEB9 whole entry, the tested form may be a part): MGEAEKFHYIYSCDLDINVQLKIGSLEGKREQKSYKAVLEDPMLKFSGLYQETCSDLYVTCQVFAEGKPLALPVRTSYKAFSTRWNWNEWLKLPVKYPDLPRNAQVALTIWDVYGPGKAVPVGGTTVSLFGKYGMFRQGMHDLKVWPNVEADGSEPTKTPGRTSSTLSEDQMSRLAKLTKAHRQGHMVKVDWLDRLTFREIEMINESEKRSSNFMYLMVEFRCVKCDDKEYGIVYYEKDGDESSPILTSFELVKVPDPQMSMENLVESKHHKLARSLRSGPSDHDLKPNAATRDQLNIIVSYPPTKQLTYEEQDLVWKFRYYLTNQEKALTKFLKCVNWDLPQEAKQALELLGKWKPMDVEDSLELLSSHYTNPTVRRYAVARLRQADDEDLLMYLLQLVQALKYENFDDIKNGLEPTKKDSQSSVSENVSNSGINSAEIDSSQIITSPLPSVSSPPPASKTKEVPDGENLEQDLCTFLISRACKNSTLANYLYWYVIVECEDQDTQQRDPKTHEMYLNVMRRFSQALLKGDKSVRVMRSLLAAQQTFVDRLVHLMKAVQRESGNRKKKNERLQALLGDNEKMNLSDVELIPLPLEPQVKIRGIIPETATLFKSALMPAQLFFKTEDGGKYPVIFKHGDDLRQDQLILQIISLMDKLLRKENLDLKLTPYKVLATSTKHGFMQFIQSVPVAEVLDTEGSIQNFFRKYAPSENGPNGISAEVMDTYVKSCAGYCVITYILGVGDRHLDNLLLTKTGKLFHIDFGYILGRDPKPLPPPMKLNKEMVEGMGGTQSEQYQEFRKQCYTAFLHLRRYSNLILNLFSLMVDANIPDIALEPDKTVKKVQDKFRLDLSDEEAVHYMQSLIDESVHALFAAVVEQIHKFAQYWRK
Test [6] has as its target T3, Ephrin type-B receptor 6 (Homo sapiens) (UniProt O15197).
T3 sequence (whole entry): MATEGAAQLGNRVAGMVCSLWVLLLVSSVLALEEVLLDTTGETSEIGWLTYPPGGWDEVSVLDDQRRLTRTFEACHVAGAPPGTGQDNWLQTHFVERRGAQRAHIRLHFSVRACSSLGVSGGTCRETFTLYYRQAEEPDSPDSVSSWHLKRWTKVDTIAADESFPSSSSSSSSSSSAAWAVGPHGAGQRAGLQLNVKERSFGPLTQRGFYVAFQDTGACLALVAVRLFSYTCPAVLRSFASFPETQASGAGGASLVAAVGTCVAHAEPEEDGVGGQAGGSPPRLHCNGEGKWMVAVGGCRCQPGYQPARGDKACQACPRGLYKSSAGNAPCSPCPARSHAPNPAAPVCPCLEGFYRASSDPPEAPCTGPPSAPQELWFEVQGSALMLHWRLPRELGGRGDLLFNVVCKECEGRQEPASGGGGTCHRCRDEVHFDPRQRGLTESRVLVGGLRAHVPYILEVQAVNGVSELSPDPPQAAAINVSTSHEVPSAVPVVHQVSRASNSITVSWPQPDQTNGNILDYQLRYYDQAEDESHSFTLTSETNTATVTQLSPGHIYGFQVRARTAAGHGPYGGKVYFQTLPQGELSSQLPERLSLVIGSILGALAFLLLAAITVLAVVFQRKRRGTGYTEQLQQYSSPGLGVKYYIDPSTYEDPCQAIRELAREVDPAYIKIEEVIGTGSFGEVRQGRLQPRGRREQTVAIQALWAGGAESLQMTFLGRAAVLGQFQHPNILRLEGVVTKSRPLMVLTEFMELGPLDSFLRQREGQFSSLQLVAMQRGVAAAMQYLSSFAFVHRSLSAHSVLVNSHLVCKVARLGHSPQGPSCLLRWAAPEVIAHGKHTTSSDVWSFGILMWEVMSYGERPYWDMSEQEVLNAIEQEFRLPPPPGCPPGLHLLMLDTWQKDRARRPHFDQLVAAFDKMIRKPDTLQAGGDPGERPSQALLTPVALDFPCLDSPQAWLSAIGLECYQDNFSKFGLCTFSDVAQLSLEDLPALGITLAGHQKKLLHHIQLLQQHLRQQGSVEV
As to the kind of experiment: Inhibition of wild-type human partial length EPHB6 (Q634 to P948 residues) expressed in mammalian expression system assessed as enzyme residual activity at 10 uM by Kinomescan method relative to control.

In test [7] the target is Non-receptor tyrosine-protein kinase TYK2 (Homo sapiens) (UniProt P29597). As to the kind of experiment: Inhibition of wild-type human partial length TYK2 JH2 pseudokinase domain (G556 to D888 residues) expressed in mammalian expression system assessed as enzyme residual activity at 10 uM by Kinomescan method relative to control.
Non-receptor tyrosine-protein kinase TYK2 (Homo sapiens), sequence (P29597 whole entry, the tested form may be a part): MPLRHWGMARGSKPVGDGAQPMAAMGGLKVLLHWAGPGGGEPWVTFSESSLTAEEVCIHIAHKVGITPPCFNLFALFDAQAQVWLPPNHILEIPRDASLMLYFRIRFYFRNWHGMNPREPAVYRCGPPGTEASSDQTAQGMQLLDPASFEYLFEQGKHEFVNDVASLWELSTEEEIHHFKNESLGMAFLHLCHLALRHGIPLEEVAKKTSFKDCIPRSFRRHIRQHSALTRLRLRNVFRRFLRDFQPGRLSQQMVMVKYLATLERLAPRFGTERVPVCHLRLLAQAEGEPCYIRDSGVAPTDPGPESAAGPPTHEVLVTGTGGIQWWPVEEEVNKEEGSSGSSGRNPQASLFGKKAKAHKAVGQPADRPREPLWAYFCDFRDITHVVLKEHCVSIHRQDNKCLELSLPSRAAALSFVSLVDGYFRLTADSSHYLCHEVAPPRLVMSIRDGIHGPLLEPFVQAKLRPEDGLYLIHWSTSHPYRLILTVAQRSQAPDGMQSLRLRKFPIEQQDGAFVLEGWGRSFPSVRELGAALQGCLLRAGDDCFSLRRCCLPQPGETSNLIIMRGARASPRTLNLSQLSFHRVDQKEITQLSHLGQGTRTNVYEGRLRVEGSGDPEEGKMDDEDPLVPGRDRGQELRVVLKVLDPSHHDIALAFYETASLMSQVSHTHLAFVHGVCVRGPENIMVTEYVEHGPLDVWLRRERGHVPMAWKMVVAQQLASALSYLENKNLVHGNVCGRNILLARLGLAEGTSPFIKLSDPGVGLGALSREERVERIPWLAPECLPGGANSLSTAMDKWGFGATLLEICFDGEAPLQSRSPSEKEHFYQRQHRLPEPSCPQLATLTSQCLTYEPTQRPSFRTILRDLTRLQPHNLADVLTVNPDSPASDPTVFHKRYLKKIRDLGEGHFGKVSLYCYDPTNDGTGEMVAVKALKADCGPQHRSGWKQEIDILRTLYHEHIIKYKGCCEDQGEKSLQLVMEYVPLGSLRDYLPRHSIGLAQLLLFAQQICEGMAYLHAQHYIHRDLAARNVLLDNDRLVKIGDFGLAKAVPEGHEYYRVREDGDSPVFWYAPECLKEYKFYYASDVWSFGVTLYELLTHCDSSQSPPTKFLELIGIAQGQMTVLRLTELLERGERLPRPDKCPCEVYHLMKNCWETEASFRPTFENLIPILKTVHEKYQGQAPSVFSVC
Test [8] deals with MCF7. As to the kind of experiment: Ratio of EC50 for dorsomorphin to EC50 for test compound for antimitotic activity against human MCF7 cells by ATP lite luminescence assay. Type of test: functional.
Test [9] has as its system A2780. Put plainly: Ratio of EC50 for dorsomorphin to EC50 for test compound for antimitotic activity against human A2780 cells by ATP lite luminescence assay. The test is classed as functional.
Test [10] addresses T1, Tyrosine-protein kinase JAK1. Put plainly: Binding affinity to wild-type human partial length JAK1 JH2 pseudokinase domain (R537 to D855 residues) expressed in mammalian expression system at 10 uM by Kinomescan method relative to control.
The target of test [11] is T4, Dual specificity mitogen-activated protein kinase kinase 5 (Homo sapiens) (UniProt Q13163).
T4 sequence (whole entry): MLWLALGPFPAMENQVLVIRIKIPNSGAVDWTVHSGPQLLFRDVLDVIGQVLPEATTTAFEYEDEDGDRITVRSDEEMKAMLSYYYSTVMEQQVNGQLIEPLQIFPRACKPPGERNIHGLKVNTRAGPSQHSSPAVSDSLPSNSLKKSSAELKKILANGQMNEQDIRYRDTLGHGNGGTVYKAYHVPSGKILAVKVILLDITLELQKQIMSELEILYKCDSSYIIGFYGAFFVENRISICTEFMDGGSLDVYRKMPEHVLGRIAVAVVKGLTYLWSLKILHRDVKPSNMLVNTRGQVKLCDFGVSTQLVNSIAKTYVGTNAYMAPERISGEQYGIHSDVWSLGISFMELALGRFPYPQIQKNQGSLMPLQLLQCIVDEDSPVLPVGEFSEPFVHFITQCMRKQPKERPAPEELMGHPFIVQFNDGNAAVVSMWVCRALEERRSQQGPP
Put plainly: Inhibition of wild-type human partial length MEK5 (L98 to P448 residues) expressed in mammalian expression system assessed as enzyme residual activity at 10 uM by Kinomescan method relative to control.

In test [12] the target is T2, Phosphatidylinositol 3-kinase catalytic subunit type 3. Put plainly: Binding affinity to wild-type human partial length PIK3C3 (S282 to H879 residues) expressed in mammalian expression system at 10 uM by Kinomescan method relative to control.
The species named for another test is Homo sapiens. As to the kind of experiment: Ratio for inhibition of wild-type human partial length TYK2 JH2 pseudokinase domain (G556 to D888 residues) expressed in mammalian expression system at 10 uM by Kinomescan method relative to control to inhibition of wild-type human partial length JAK1 JH2 pseudokinase domain (R537 to D855 residues) expressed in mammalian expression system at 10 uM by Kinomescan method relative to control.

Turning to `CN1CCN(CCOc2ccc(-c3cnc4c(-c5cccc(F)c5)cnn4c3)cc2)CC1`, in the test with A2780 [1], the outcome was Active. This compound had a pEC50 in the test on A2780 [2] of 6.02.

`c1cc(-c2cnn3cc(-c4ccc(OCCN5CCCCC5)cc4)cnc23)ccn1` [DORSOMORPHIN]: the pEC50 with MCF7 [3] is 5.31; in the test on A2780 [2] it was 5.96 to 6.05.

Take `Fc1ccc(-c2cnn3cc(-c4ccc(OCCN5CCCCC5)cc4)cnc23)cc1`: in the test with A2780 [1], the result was Active. Moreover, the pEC50 was 5.44 in the test with MCF7 [3] and 6.03 in the test on A2780 [2].

Take `Fc1cccc(-c2cnn3cc(-c4ccc(OCCN5CCCCC5)cc4)cnc23)c1`: the Activity in test [4] is 41%; in [5], 100%; in test [6], less than 10%; in test [7], less than 10%. For the same compound, the result in the test with A2780 [1] was Active. For the same compound, the pEC50 in the test on MCF7 [3] was 5.66; with A2780 [2], 5.92.

Regarding `CN1CCN(CCOc2ccc(-c3cnc4c(-c5ccc(C(F)(F)F)cc5)cnn4c3)cc2)CC1`, the outcome in the test with A2780 [1] was Active. The negative-log EC50 (pEC50) in the test on A2780 [2] is 5.54.

Consider `CN1CCN(CCOc2ccc(-c3cnc4c(-c5ccccc5F)cnn4c3)cc2)CC1`, for which the result with A2780 [1] was Active. Also, the “Ratio EC50” value worked out at 3 in the test with MCF7 [8] and 2 in the test on A2780 [9]. For the same compound, in the test with A2780 [2], the pEC50 is 6.28.

On to `CN1CCN(CCOc2ccc(-c3cnc4c(-c5cccc(F)c5F)cnn4c3)cc2)CC1`, for which the result in the test with A2780 [1] was Active. Also, the pEC50 in the test on A2780 [2] was 6.08.

For `Fc1ccccc1-c1cnn2cc(-c3ccc(OCCN4CCCCC4)cc3)cnc12`, the outcome in the test on A2780 [1] was Active. Also, the negative-log EC50 (pEC50) is 5.55 in the test on MCF7 [3] and 5.57 in the test on A2780 [2].

In the case of `CN1CCN(CCOc2ccc(-c3cnc4c(-c5ccc(F)cc5)cnn4c3)cc2)CC1`, the outcome in the test with A2780 [1] was Active. This compound showed a pEC50 in the test with A2780 [2] of 5.96.

As for `c1ccc2sc(-c3cnn4cccnc34)nc2c1`, the Activity in test [4] is 0.8%; in [5], 0.9%; in test [11] it was 3.9%; in test [6], 9.9%; in test [7], 5%. For the same compound, the pKd was 6.26 in [10] and 6.39 in [12]. Further, the outcome in the test with A2780 [1] was Active. In the test with A2780 [2], this compound gave a pEC50 of 6.05. Moreover, the Ratio in the test filed under Homo sapiens is 6.

Turning to `Fc1cccc(-c2cnn3cc(-c4ccc(OCCN5CCCCC5)cc4)cnc23)c1F`, in the test with A2780 [1], the outcome was Active. For the same compound, the pEC50 in the test with MCF7 [3] is 5.37; with A2780 [2], 5.85.

For `FC(F)(F)c1ccc(-c2cnn3cc(-c4ccc(OCCN5CCCCC5)cc4)cnc23)cc1`, the result in the test on A2780 [1] was Active. The results for the pEC50 in the test with MCF7 [3] and in the test on A2780 [2] were 5.80 and 5.64, respectively.
